In ChEMBL document CHEMBL1201861, “Genomics of Drug Sensitity in Cancer screening data, Wellcome Trust Sanger Institute”:

What follows are compounds tested on DJM-1 (assay: cells). Conditions: Homo sapiens, DJM-1.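 Further: growth inhibition of human DJM-1 cells, read out by a cell viability assay.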
Assay type: functional, cell-based, Homo sapiens
Description: SANGER: Inhibition of human DJM-1 cell growth in a cell viability assay.

SMILES	IC50 [µM]
O=C(NCCCNc1nc(Nc2cccc(NC(=O)N3CCCC3)c2)ncc1I)c1cccs1 [BX-795]	> 5

The compounds below were run on DMS-114 (assay: cells). Conditions: Homo sapiens, DMS-114.
Assay type: functional, cell-based, Homo sapiens

SMILES	IC50 [µM]
O=C(NCCCNc1nc(Nc2cccc(NC(=O)N3CCCC3)c2)ncc1I)c1cccs1 [BX-795]	> 5

These compounds were tested on EW-11 (assay: cells). Conditions: Homo sapiens, EW-11.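 Further: growth inhibition of human EW-11 cells, measured with a cell viability assay.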
Assay type: functional, cell-based, Homo sapiens
Description: SANGER: Inhibition of human EW-11 cell growth in a cell viability assay.

SMILES	IC50 [µM]
O=C(NCCCNc1nc(Nc2cccc(NC(=O)N3CCCC3)c2)ncc1I)c1cccs1 [BX-795]	> 5

What follows are compounds tested on EW-16 (assay: cells). Conditions: Homo sapiens, EW-16.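 Further: growth inhibition of human EW-16 cells, read out as cell viability.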
Assay type: functional, cell-based, Homo sapiens
Description: SANGER: Inhibition of human EW-16 cell growth in a cell viability assay.

SMILES	IC50 [µM]
O=C(NCCCNc1nc(Nc2cccc(NC(=O)N3CCCC3)c2)ncc1I)c1cccs1 [BX-795]	4.31

What follows are compounds tested on GB-1 (assay: cells). Conditions: Homo sapiens, GB-1.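 Further: growth of GB-1 cells judged by a viability assay, IC50 marks the concentration inhibiting growth.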
Assay type: functional, cell-based, Homo sapiens
Description: SANGER: Inhibition of human GB-1 cell growth in a cell viability assay.

SMILES	IC50 [µM]
O=C(NCCCNc1nc(Nc2cccc(NC(=O)N3CCCC3)c2)ncc1I)c1cccs1 [BX-795]	4.64

The compounds below were run on GI-1 (assay: cells). Conditions: Homo sapiens, GI-1.
Assay type: functional, cell-based, Homo sapiens
Description: SANGER: Inhibition of human GI-1 cell growth in a cell viability assay.

SMILES	IC50 [µM]
O=C(NCCCNc1nc(Nc2cccc(NC(=O)N3CCCC3)c2)ncc1I)c1cccs1 [BX-795]	> 5

The compounds below were run on GI-ME-N (assay: cells). Conditions: Homo sapiens, GI-ME-N.
Assay type: functional, cell-based, Homo sapiens
Description: SANGER: Inhibition of human GI-ME-N cell growth in a cell viability assay.

SMILES	IC50 [nM]
O=C(NCCCNc1nc(Nc2cccc(NC(=O)N3CCCC3)c2)ncc1I)c1cccs1 [BX-795]	1870

These compounds were tested on GOTO (assay: cells). Conditions: Homo sapiens, GOTO.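 Further: growth inhibition of GOTO cells, read out by a cell viability assay.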
Assay type: functional, cell-based, Homo sapiens
Description: SANGER: Inhibition of human GOTO cell growth in a cell viability assay.

SMILES	IC50 [µM]
O=C(NCCCNc1nc(Nc2cccc(NC(=O)N3CCCC3)c2)ncc1I)c1cccs1 [BX-795]	> 5

These compounds were tested on GR-ST (assay: cells). Conditions: Homo sapiens, GR-ST.
Assay type: functional, cell-based, Homo sapiens
Description: SANGER: Inhibition of human GR-ST cell growth in a cell viability assay.

SMILES	IC50 [µM]
O=C(NCCCNc1nc(Nc2cccc(NC(=O)N3CCCC3)c2)ncc1I)c1cccs1 [BX-795]	4.98

These compounds were tested on GT3TKB (assay: cells). Conditions: Homo sapiens, GT3TKB.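 Further: growth inhibition of the cell line, read out with a cell viability assay.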
Assay type: functional, cell-based, Homo sapiens
Description: SANGER: Inhibition of human GT3TKB cell growth in a cell viability assay.

SMILES	IC50 [nM]
O=C(NCCCNc1nc(Nc2cccc(NC(=O)N3CCCC3)c2)ncc1I)c1cccs1 [BX-795]	1900

The compounds below were run on HL-60 (assay: cells). Conditions: Homo sapiens, HL-60.
Assay type: functional, cell-based, Homo sapiens
Description: SANGER: Inhibition of human HL-60 cell growth in a cell viability assay.

SMILES	IC50 [nM]
O=C(NCCCNc1nc(Nc2cccc(NC(=O)N3CCCC3)c2)ncc1I)c1cccs1 [BX-795]	2540

What follows are compounds tested on KE-37 (assay: cells). Conditions: Homo sapiens, KE-37.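 Further: growth inhibition of KE-37 cells, read out with a cell viability assay.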
Assay type: functional, cell-based, Homo sapiens
Description: SANGER: Inhibition of human KE-37 cell growth in a cell viability assay.

SMILES	IC50 [µM]
O=C(NCCCNc1nc(Nc2cccc(NC(=O)N3CCCC3)c2)ncc1I)c1cccs1 [BX-795]	3.1

These compounds were tested on KGN (assay: cells). Conditions: Homo sapiens, KGN.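 Further: growth inhibition of KGN cells, read out with a cell viability assay.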
Assay type: functional, cell-based, Homo sapiens
Description: SANGER: Inhibition of human KGN cell growth in a cell viability assay.

SMILES	IC50 [nM]
O=C(NCCCNc1nc(Nc2cccc(NC(=O)N3CCCC3)c2)ncc1I)c1cccs1 [BX-795]	2230

The compounds below were run on KLE (assay: cells). Conditions: Homo sapiens.
Assay type: functional, cell-based
Description: SANGER: Inhibition of human KLE cell growth in a cell viability assay.

SMILES	IC50 [µM]
O=C(NCCCNc1nc(Nc2cccc(NC(=O)N3CCCC3)c2)ncc1I)c1cccs1 [BX-795]	> 5

Each compound was assayed on KS-1 (assay: cells). Conditions: Homo sapiens.
Assay type: functional, cell-based
Description: SANGER: Inhibition of human KS-1 cell growth in a cell viability assay.

SMILES	IC50 [nM]
O=C(NCCCNc1nc(Nc2cccc(NC(=O)N3CCCC3)c2)ncc1I)c1cccs1 [BX-795]	1830

These compounds were tested on LAN-6 (assay: cells). Conditions: Homo sapiens, LAN-6.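 Further: growth inhibition of LAN-6 cells, determined with a cell viability assay.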
Assay type: functional, cell-based, Homo sapiens
Description: SANGER: Inhibition of human LAN-6 cell growth in a cell viability assay.

SMILES	IC50 [µM]
O=C(NCCCNc1nc(Nc2cccc(NC(=O)N3CCCC3)c2)ncc1I)c1cccs1 [BX-795]	> 5

The compounds below were run on LB771-HNC (assay: cells). Conditions: Homo sapiens.
Assay type: functional, cell-based
Description: SANGER: Inhibition of human LB771-HNC cell growth in a cell viability assay.

SMILES	IC50 [µM]
O=C(NCCCNc1nc(Nc2cccc(NC(=O)N3CCCC3)c2)ncc1I)c1cccs1 [BX-795]	> 5

The compounds below were run on LS-1034 (assay: cells). Conditions: Homo sapiens, LS-1034.
Assay type: functional, cell-based, Homo sapiens
Description: SANGER: Inhibition of human LS-1034 cell growth in a cell viability assay.

SMILES	IC50 [µM]
O=C(NCCCNc1nc(Nc2cccc(NC(=O)N3CCCC3)c2)ncc1I)c1cccs1 [BX-795]	> 5

The compounds below were run on MC116 (assay: cells). Conditions: Homo sapiens, MC116.
Assay type: functional, cell-based, Homo sapiens
Description: SANGER: Inhibition of human MC116 cell growth in a cell viability assay.

SMILES	IC50 [µM]
O=C(NCCCNc1nc(Nc2cccc(NC(=O)N3CCCC3)c2)ncc1I)c1cccs1 [BX-795]	> 5

What follows are compounds tested on MMAC-SF (assay: cells). Conditions: Homo sapiens.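 Further: growth inhibition of human MMAC-SF cells, read out with a cell viability assay.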
Assay type: functional, cell-based
Description: SANGER: Inhibition of human MMAC-SF cell growth in a cell viability assay.

SMILES	IC50 [µM]
O=C(NCCCNc1nc(Nc2cccc(NC(=O)N3CCCC3)c2)ncc1I)c1cccs1 [BX-795]	> 5

These compounds were tested on MOLT-16 (assay: cells). Conditions: Homo sapiens, MOLT-16.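 Further: growth inhibition of human MOLT-16 cells, read out with a cell viability assay.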
Assay type: functional, cell-based, Homo sapiens
Description: SANGER: Inhibition of human MOLT-16 cell growth in a cell viability assay.

SMILES	IC50 [µM]
O=C(NCCCNc1nc(Nc2cccc(NC(=O)N3CCCC3)c2)ncc1I)c1cccs1 [BX-795]	3.17

The compounds below were run on MPP-89 (assay: cells). Conditions: Homo sapiens, MPP-89.
Assay type: functional, cell-based, Homo sapiens
Description: SANGER: Inhibition of human MPP-89 cell growth in a cell viability assay.

SMILES	IC50 [µM]
O=C(NCCCNc1nc(Nc2cccc(NC(=O)N3CCCC3)c2)ncc1I)c1cccs1 [BX-795]	> 5

What follows are compounds tested on MZ2-MEL (assay: cells). Conditions: Homo sapiens, MZ2-MEL.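 Further: growth inhibition of MZ2-MEL cells read out with a cell viability assay.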
Assay type: functional, cell-based, Homo sapiens
Description: SANGER: Inhibition of human MZ2-MEL cell growth in a cell viability assay.

SMILES	IC50 [µM]
O=C(NCCCNc1nc(Nc2cccc(NC(=O)N3CCCC3)c2)ncc1I)c1cccs1 [BX-795]	> 5

Each compound was assayed on NB5 (assay: cells). Conditions: Homo sapiens, NB5.
Assay type: functional, cell-based, Homo sapiens
Description: SANGER: Inhibition of human NB5 cell growth in a cell viability assay.

SMILES	IC50 [nM]
O=C(NCCCNc1nc(Nc2cccc(NC(=O)N3CCCC3)c2)ncc1I)c1cccs1 [BX-795]	2940

The compounds below were run on NB6 (assay: cells). Conditions: Homo sapiens, NB6.
Assay type: functional, cell-based, Homo sapiens
Description: SANGER: Inhibition of human NB6 cell growth in a cell viability assay.

SMILES	IC50 [nM]
O=C(NCCCNc1nc(Nc2cccc(NC(=O)N3CCCC3)c2)ncc1I)c1cccs1 [BX-795]	2740

What follows are compounds tested on NCI-H1304 (assay: cells). Conditions: Homo sapiens, NCI-H1304.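 Further: growth inhibition of the cancer cell line, measured in a cell viability assay.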
Assay type: functional, cell-based, Homo sapiens
Description: SANGER: Inhibition of human NCI-H1304 cell growth in a cell viability assay.

SMILES	IC50 [µM]
O=C(NCCCNc1nc(Nc2cccc(NC(=O)N3CCCC3)c2)ncc1I)c1cccs1 [BX-795]	> 5

The compounds below were run on NCI-H1395 (assay: cells). Conditions: Homo sapiens, NCI-H1395.
Assay type: functional, cell-based, Homo sapiens
Description: SANGER: Inhibition of human NCI-H1395 cell growth in a cell viability assay.

SMILES	IC50 [µM]
O=C(NCCCNc1nc(Nc2cccc(NC(=O)N3CCCC3)c2)ncc1I)c1cccs1 [BX-795]	> 5

What follows are compounds tested on NCI-H2126 (assay: cells). Conditions: Homo sapiens, NCI-H2126.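 Further: growth inhibition of the cancer cell line, determined with a cell viability readout.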
Assay type: functional, cell-based, Homo sapiens
Description: SANGER: Inhibition of human NCI-H2126 cell growth in a cell viability assay.

SMILES	IC50 [µM]
O=C(NCCCNc1nc(Nc2cccc(NC(=O)N3CCCC3)c2)ncc1I)c1cccs1 [BX-795]	> 5

These compounds were tested on NCI-H747 (assay: cells). Conditions: Homo sapiens, NCI-H747.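 Further: growth inhibition of human NCI-H747 cells, read out by a cell viability assay.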
Assay type: functional, cell-based, Homo sapiens
Description: SANGER: Inhibition of human NCI-H747 cell growth in a cell viability assay.

SMILES	IC50 [µM]
O=C(NCCCNc1nc(Nc2cccc(NC(=O)N3CCCC3)c2)ncc1I)c1cccs1 [BX-795]	> 5

These compounds were tested on NKM-1 (assay: cells). Conditions: Homo sapiens, NKM-1.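 Further: growth inhibition of NKM-1 cells, read out with a cell viability assay.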
Assay type: functional, cell-based, Homo sapiens
Description: SANGER: Inhibition of human NKM-1 cell growth in a cell viability assay.

SMILES	IC50 [nM]
O=C(NCCCNc1nc(Nc2cccc(NC(=O)N3CCCC3)c2)ncc1I)c1cccs1 [BX-795]	362

What follows are compounds tested on OCUB-M (assay: cells). Conditions: Homo sapiens.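 Further: growth inhibition of the cancer cell line, read out through a cell viability assay.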
Assay type: functional, cell-based
Description: SANGER: Inhibition of human OCUB-M cell growth in a cell viability assay.

SMILES	IC50 [µM]
O=C(NCCCNc1nc(Nc2cccc(NC(=O)N3CCCC3)c2)ncc1I)c1cccs1 [BX-795]	> 5

What follows are compounds tested on OVCAR-4 (assay: cells). Conditions: Homo sapiens, OVCAR-4.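 Further: growth inhibition of human OVCAR-4 cells, measured with a cell viability assay.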
Assay type: functional, cell-based, Homo sapiens
Description: SANGER: Inhibition of human OVCAR-4 cell growth in a cell viability assay.

SMILES	IC50 [µM]
O=C(NCCCNc1nc(Nc2cccc(NC(=O)N3CCCC3)c2)ncc1I)c1cccs1 [BX-795]	> 5

The compounds below were run on RCC10RGB (assay: cells). Conditions: Homo sapiens, RCC10RGB.
Assay type: functional, cell-based, Homo sapiens
Description: SANGER: Inhibition of human RCC10RGB cell growth in a cell viability assay.

SMILES	IC50 [µM]
O=C(NCCCNc1nc(Nc2cccc(NC(=O)N3CCCC3)c2)ncc1I)c1cccs1 [BX-795]	> 5

What follows are compounds tested on RXF 393 (assay: cells). Conditions: Homo sapiens, RXF 393.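 Further: growth inhibition of human RXF 393 cells, read out with a cell viability assay.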
Assay type: functional, cell-based, Homo sapiens
Description: SANGER: Inhibition of human RXF393 cell growth in a cell viability assay.

SMILES	IC50 [µM]
O=C(NCCCNc1nc(Nc2cccc(NC(=O)N3CCCC3)c2)ncc1I)c1cccs1 [BX-795]	3.41

What follows are compounds tested on SF-126 (assay: cells). Conditions: Homo sapiens, SF-126.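 Further: growth inhibition of human SF126 cells, read out with a cell viability assay.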
Assay type: functional, cell-based, Homo sapiens
Description: SANGER: Inhibition of human SF126 cell growth in a cell viability assay.

SMILES	IC50 [nM]
O=C(NCCCNc1nc(Nc2cccc(NC(=O)N3CCCC3)c2)ncc1I)c1cccs1 [BX-795]	2440

These compounds were tested on SH-4 (assay: cells). Conditions: Homo sapiens.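 Further: growth inhibition of SH-4 cells, read out with a cell viability assay.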
Assay type: functional, cell-based
Description: SANGER: Inhibition of human SH-4 cell growth in a cell viability assay.

SMILES	IC50 [µM]
O=C(NCCCNc1nc(Nc2cccc(NC(=O)N3CCCC3)c2)ncc1I)c1cccs1 [BX-795]	> 5

The compounds below were run on SK-MEL-1 (assay: cells). Conditions: Homo sapiens, SK-MEL-1.
Assay type: functional, cell-based, Homo sapiens
Description: SANGER: Inhibition of human SK-MEL-1 cell growth in a cell viability assay.

SMILES	IC50 [µM]
O=C(NCCCNc1nc(Nc2cccc(NC(=O)N3CCCC3)c2)ncc1I)c1cccs1 [BX-795]	> 5

These compounds were tested on SNU-C2B (assay: cells). Conditions: Homo sapiens.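 Further: cell viability readout used to measure compound-driven suppression of SNU-C2B cell proliferation, IC50 marking half-maximal growth inhibition.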
Assay type: functional, cell-based
Description: SANGER: Inhibition of human SNU-C2B cell growth in a cell viability assay.

SMILES	IC50 [µM]
O=C(NCCCNc1nc(Nc2cccc(NC(=O)N3CCCC3)c2)ncc1I)c1cccs1 [BX-795]	> 5

The compounds below were run on ALL-PO (assay: cells). Conditions: Homo sapiens, ALL-PO.
Assay type: functional, cell-based, Homo sapiens
Description: SANGER: Inhibition of human ALL-PO cell growth in a cell viability assay.

SMILES	IC50 [nM]
O=C(NCCCNc1nc(Nc2cccc(NC(=O)N3CCCC3)c2)ncc1I)c1cccs1 [BX-795]	1060

What follows are compounds tested on BB49-HNC (assay: cells). Conditions: Homo sapiens, BB49-HNC.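 Further: cell viability assay read-out, reported as inhibition of BB49-HNC cell growth.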
Assay type: functional, cell-based, Homo sapiens
Description: SANGER: Inhibition of human BB49-HNC cell growth in a cell viability assay.

SMILES	IC50 [µM]
O=C(NCCCNc1nc(Nc2cccc(NC(=O)N3CCCC3)c2)ncc1I)c1cccs1 [BX-795]	> 5

Each compound was assayed on BE-13 (assay: cells). Conditions: Homo sapiens, BE-13.
Assay type: functional, cell-based, Homo sapiens
Description: SANGER: Inhibition of human BE-13 cell growth in a cell viability assay.

SMILES	IC50 [nM]
O=C(NCCCNc1nc(Nc2cccc(NC(=O)N3CCCC3)c2)ncc1I)c1cccs1 [BX-795]	705

These compounds were tested on C2BBe1 (assay: cells). Conditions: Homo sapiens, C2BBe1.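 Further: growth inhibition of C2BBe1 cells, read out through a viability assay.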
Assay type: functional, cell-based, Homo sapiens
Description: SANGER: Inhibition of human C2BBe1 cell growth in a cell viability assay.

SMILES	IC50 [µM]
O=C(NCCCNc1nc(Nc2cccc(NC(=O)N3CCCC3)c2)ncc1I)c1cccs1 [BX-795]	> 5

What follows are compounds tested on TE-10 (assay: cells). Conditions: Homo sapiens, TE-10.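 Further: growth inhibition of TE-10 cells, measured by a cell viability assay.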
Assay type: functional, cell-based, Homo sapiens
Description: SANGER: Inhibition of human TE-10 cell growth in a cell viability assay.

SMILES	IC50 [µM]
O=C(NCCCNc1nc(Nc2cccc(NC(=O)N3CCCC3)c2)ncc1I)c1cccs1 [BX-795]	> 5

These compounds were tested on TGBC24TKB (assay: cells). Conditions: Homo sapiens.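 Further: growth inhibition of human TGBC24TKB cells, read out with a cell viability assay.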
Assay type: functional, cell-based
Description: SANGER: Inhibition of human TGBC24TKB cell growth in a cell viability assay.

SMILES	IC50 [µM]
O=C(NCCCNc1nc(Nc2cccc(NC(=O)N3CCCC3)c2)ncc1I)c1cccs1 [BX-795]	> 5

What follows are compounds tested on VA-ES-BJ (assay: cells). Conditions: Homo sapiens, VA-ES-BJ.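 Further: growth inhibition of the VA-ES-BJ cell line, read out by a cell viability assay.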
Assay type: functional, cell-based, Homo sapiens
Description: SANGER: Inhibition of human VA-ES-BJ cell growth in a cell viability assay.

SMILES	IC50 [nM]
O=C(NCCCNc1nc(Nc2cccc(NC(=O)N3CCCC3)c2)ncc1I)c1cccs1 [BX-795]	985

The compounds below were run on no-11 (assay: cells). Conditions: Homo sapiens.
Assay type: functional, cell-based, Homo sapiens
Description: SANGER: Inhibition of human no-11 cell growth in a cell viability assay.

SMILES	IC50 [µM]
O=C(NCCCNc1nc(Nc2cccc(NC(=O)N3CCCC3)c2)ncc1I)c1cccs1 [BX-795]	> 5

What follows are compounds tested on COLO-684 (assay: cells). Conditions: Homo sapiens, COLO-684.
Assay type: functional, cell-based, Homo sapiens
Description: SANGER: Inhibition of human COLO-684 cell growth in a cell viability assay.

SMILES	IC50 [µM]
O=C(NCCCNc1nc(Nc2cccc(NC(=O)N3CCCC3)c2)ncc1I)c1cccs1 [BX-795]	> 5
